Reference: patent US8476197B2, “Aminopropenoates as fungicides” (priority 2009, dated 2013)
Marks after values point to notes of the source that are not given here.

details: pH 2.3

Row | Compound | Log P
1 | CCCCCCC(C)NC(=C(C#N)C(=O)OCC)c1cccnc1Cl (racemic) [Compound 819] | 4.53
2 | CNC(=O)C(C#N)=C(NC(C)C1CC1)c1cccnc1Cl (racemic) [Compound 908] | 2.2^[c]; 2.2^[b]

same assay, conditions: pH 2.7

Row | Compound | Log P
3 | CCCCCCC(C)NC(=C(C#N)C(=O)OCC)c1sccc1C(F)(F)F (racemic) [Compound 815] | 5.48^[a]
4 | CCCCCCC(C)NC(=C(C#N)C(=O)OC)c1sc(C)nc1C(F)(F)F (racemic) [Compound 816] | 4.86^[a]
5 | CCCCCCC(C)NC(=C(C#N)C(=O)OCC)c1cn(C)nc1C(F)F (racemic) [Compound 817] | 4.36^[a]
6 | CCCCCCC(C)NC(=C(C#N)C(=O)OCC)c1sc(C)nc1C(F)(F)F (racemic) [Compound 818] | 5.22^[a]
7 | CCOC(=O)C(C#N)=C(NC(C)CC)c1cccnc1C(F)(F)F (racemic) [Compound 840] | 3.27^[a]
8 | CCOC(=O)C(C#N)=C(NC(C)CC)c1cccnc1C(F)F (racemic) [Compound 842] | 2.87^[a]
9 | CCCCCC(C)NC(=C(C#N)C(=O)OCC)c1sccc1C(F)(F)F (racemic) [Compound 849] | 5.05^[a]
10 | CCCCCC(C)NC(=C(C#N)C(=O)OC)c1sc(C)nc1C(F)(F)F (racemic) [Compound 852] | 4.41^[a]
11 | CCOC(=O)C(C#N)=C(NC(C)C1CC1)c1cn(C)nc1C(F)(F)F (racemic) [Compound 894] | 3.29^[a]
12 | CCOC(=O)C(C#N)=C(NC(C)C1CC1)c1ccncc1Cl (racemic) [Compound 898] | 3.03^[a]
13 | CCOC(=O)C(C#N)=C(NC(C)C1CC1)c1cccnc1C(F)F (racemic) [Compound 899] | 2.9^[a]
14 | CCOC(=O)C(C#N)=C(NC(C)C1CC1)c1ccncc1Br (racemic) [Compound 903] | 3^[a]
15 | CCOC(=O)C(C#N)=C(NC(C)C1CC1)c1ccncc1F (racemic) [Compound 904] | 2.8^[a]
16 | CCOC(=O)C(C#N)=C(NC(C)C1CC1)c1ccncc1C(F)(F)F (racemic) [Compound 905] | 3.2^[a]
17 | COC(=O)C(C#N)=C(NC(C)C(C)(C)C)c1sc(C)nc1C(F)(F)F (racemic) [Compound 920] | 3.83^[a]
18 | CCOC(=O)C(C#N)=C(NC(C)C(C)(C)C)c1ccsc1Br (racemic) [Compound 923] | 4.36^[a]
19 | CCOC(=O)C(C#N)=C(NC(C)C(C)C)c1c(C(F)F)nn(C)c1F (racemic) [Compound 1000] | 3.53^[a]
20 | C=CCCCC(C=C)NC(=C(C#N)C(=O)OCC)c1c(C)nn(C)c1Cl (racemic) [Compound 1013] | 4.04^[a]
21 | C=CCCCC(C=C)NC(=C(C#N)C(=O)OCC)c1sccc1C(F)(F)F (racemic) [Compound 1014] | 4.7^[a]
22 | C=CCCCC(C=C)NC(=C(C#N)C(=O)OCC)c1cn(C)nc1C(F)F (racemic) [Compound 1016] | 3.73^[a]
23 | C=CCCCC(C=C)NC(=C(C#N)C(=O)OCC)c1sccc1Br (racemic) [Compound 1017] | 4.67^[a]
24 | C=CCCCC(C=C)NC(=C(C#N)C(=O)OCC)c1ccsc1Br (racemic) [Compound 1018] | 4.67^[a]
25 | CCOC(=O)C(C#N)=C(NC(C)COc1cccc(C(F)(F)F)c1)c1cn(C)nc1C(F)F (racemic) [Compound 1237] | 3.92^[a]
26 | CCOC(=O)C(C#N)=C(NCC(c1ccccc1)C(C)C)c1cn(C)nc1C(F)F (racemic) [Compound 1239] | 3.94^[a]
27 | CCOC(=O)C(C#N)=C(NC(C)C(=O)CC)c1cn(C)nc1C(F)F (racemic) [Compound 1240] | 2.47^[a]
28 | CCOC(=O)C(C#N)=C(NC(C)COCc1ccccc1Cl)c1cn(C)nc1C(F)F (racemic) [Compound 1241] | 3.83^[a]

Now from value to compound:

Row | Log P | Compound
29 | 5.41^[a] | CCCCCCC(C)NC(=C(C#N)C(=O)OCC)c1ccsc1Br (racemic) [Compound 820]
30 | 3.67^[a] | CCOC(=O)C(C#N)=C(NC(C)CC)c1nc(Cl)ccc1Cl (racemic) [Compound 837]
31 | 3.64^[a] | CCOC(=O)C(C#N)=C(NC(C)CC)c1cnc(Cl)cc1Cl (racemic) [Compound 838]
32 | 3.78^[a] | CCOC(=O)C(C#N)=C(NC(C)CC)c1ncc(Cl)cc1Cl (racemic) [Compound 839]
33 | 3.89^[a] | CCOC(=O)C(C#N)=C(NC(C)CC)c1nc(SC)ncc1Br (racemic) [Compound 841]
34 | 3.17^[a] | CCOC(=O)C(C#N)=C(NC(C)CC)c1cnccc1C(F)(F)F (racemic) [Compound 843]
35 | 5.03^[a] | CCCCCC(C)NC(=C(C#N)C(=O)OCC)c1sccc1Br (racemic) [Compound 846]
36 | 3.94^[a] | CCCCCC(C)NC(=C(C#N)C(=O)OCC)c1cn(C)nc1C(F)F (racemic) [Compound 855]
37 | 4.81^[a] | CCCCCC(C)NC(=C(C#N)C(=O)OCC)c1sc(C)nc1C(F)(F)F (racemic) [Compound 858]
38 | 2.84^[a] | CCOC(=O)C(C#N)=C(NC(C)C1CC1)c1cn(C)nc1C(C)F (racemic) [Compound 895]
39 | 3.69^[a] | CCOC(=O)C(C#N)=C(NC(C)C1CC1)c1cc(Cl)ncc1Cl (racemic) [Compound 896]
40 | 3.2^[a] | CCOC(=O)C(C#N)=C(NC(C)C1CC1)c1cnccc1C(F)(F)F (racemic) [Compound 897]
41 | 3.92^[a] | CCOC(=O)C(C#N)=C(NC(C)C1CC1)c1cc(Cl)cc(Cl)n1 (racemic) [Compound 900]
42 | 3.56^[a] | CCOC(=O)C(C#N)=C(NC(C)C1CC1)c1cn(C)cc1C(F)(F)F (racemic) [Compound 901]
43 | 3.61^[a] | CCOC(=O)C(C#N)=C(NC(C)C1CC1)c1ccnc(Cl)c1Cl (racemic) [Compound 902]
44 | 3.37^[a] | CCOC(=O)C(C#N)=C(NC(C)C(C)(C)C)c1cn(C)nc1C(F)F (racemic) [Compound 918]
45 | 4.46^[a] | CCOC(=O)C(C#N)=C(NC(C)C(C)(C)C)c1sccc1C(F)(F)F (racemic) [Compound 919]
46 | 4.41^[a] | CCOC(=O)C(C#N)=C(NC(C)C(C)(C)C)c1sccc1Br (racemic) [Compound 921]
47 | 4.21^[a] | CCOC(=O)C(C#N)=C(NC(C)C(C)(C)C)c1sc(C)nc1C(F)(F)F (racemic) [Compound 922]
48 | 3.84^[a] | CCOC(=O)C(C#N)=C(NC(C)C(C)C)c1cn(C)cc1C(F)(F)F (racemic) [Compound 987]
49 | 4.06^[a] | CCOC(=O)C(C#N)=C(NC(C)C(C)C)c1c(C(F)(F)F)nn(C)c1Cl (racemic) [Compound 1001]
50 | 3.39^[a] | CCOC(=O)C(C#N)=C(NC(C)C(C)C)c1cn(C)nc1C(C)(F)F (racemic) [Compound 1002]
51 | 4.82^[a] | C=CCCCC(C=C)NC(=C(C#N)C(=O)OCC)c1ncc(C(F)(F)F)cc1Cl (racemic) [Compound 1015]
52 | 4.08^[a] | CCOC(=O)C(C#N)=C(NC(C)CSc1cc(Cl)ccc1Cl)c1cn(C)nc1C(F)F (racemic) [Compound 1235]
53 | 4.2^[a] | CCOC(=O)C(C#N)=C(NC(C)CSc1ccc(Cl)c(Cl)c1)c1cn(C)nc1C(F)F (racemic) [Compound 1236]

same assay, conditions: pH 7.5

Row | Compound | Log P
54 | CCCCCCC(C)NC(=C(C#N)C(=O)OCC)c1cccnc1Cl (racemic) [Compound 819] | 4.55
55 | CCCCCC(C)NC(=C(C#N)C(=O)OCC)c1cccnc1Cl (racemic) [Compound 859] | 4.1
56 | CNC(=O)C(C#N)=C(NC(C)C1CC1)c1cccnc1Cl (racemic) [Compound 908] | 2.2^[c]; 2.2^[b]
